One series addresses Fms kinase (Homo sapiens (Human), UniProt P07333). Nature of the series: Fms kinase biochemical activity assay (AlphaScreen, biotin-(E4Y)10 phosphorylation). The method in brief: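 Recombinant human Fms phosphorylating 30 nM biotin-(E4Y)10 with 100 μM ATP (1 ng/well enzyme) in Hepes pH 7.5 buffer with Mg2+/Mn2+, 5% DMSO, 20 min at 30 °C. Phosphotyrosine detected by AlphaScreen streptavidin donor/PY20 acceptor beads; IC50 from signal versus compound concentration.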

For the next series, the target named is c-Kit kinase (Homo sapiens (Human), UniProt P10721). Nature of the series: c-Kit kinase biochemical activity assay (AlphaScreen, biotin-(E4Y)10 phosphorylation). As for the experimental part:
In one assay the biochemical activity IC50 values are determined with respect to inhibition of c-Kit kinase activity, where inhibition of phosphorylation of a peptide substrate is measured as a function of compound concentration. Compounds to be tested are dissolved in DMSO to a concentration of 20 mM. These are diluted 30 μL into 120 μL of DMSO (4 mM) and 1 μL is added to an assay plate. These are then serially diluted […] (50 μL to 100 μL DMSO) for a total of 8 points. Plates are prepared such that each kinase reaction is 20 μL in 1× kinase buffer (25 mM HEPES, pH 7.5, 2 mM MgCl2, 2 mM MnCl2, 0.01% Tween-20, 1 mM DTT, 0.01% BSA), 5% DMSO and 100 μM ATP. Substrate is 30 nM biotin-(E4Y)10 (Millipore). C-kit kinase (obtained from Millipore (#14-559) or is prepared as described in U.S. Patent Application Publication Number 2009/0076046, the disclosure of which is hereby incorporated by reference as it relates to this assay) is at 0.75 ng per sample. After incubation of the kinase reaction for 1 hour at room temperature, 5 μL of donor beads (Streptavidin coated beads (Perkin Elmer Life Science) final concentration 10 μg/mL) in stop buffer (25 mM Hepes pH 7.5, 100 mM EDTA, 0.01% BSA) is added, the sample is mixed and incubated for 20 minutes at room temperature before adding 5 μL of acceptor beads (PY20 coated beads (Perkin Elmer Life Science) final concentration 10 μg/mL) in stop buffer. The samples are incubated for 60 minutes at room temperature and the signal per well is read on Envision reader. […] The signal vs. compound concentration is used to determine the IC50.

Another series deals with CYP2D6 (Homo sapiens (Human), UniProt P10635). As to the kind of experiment: CYP enzyme inhibition, fluorescent substrate. The conditions noted are these: read-out: Cyp IC50 (μM) 2D6. As for the experimental part: (§1) CYP (Cytochrome P450) enzymes are the major drug metabolizing enzymes present in the liver. The inhibition of CYP enzyme activity (IC50) for each of CYP1A2, CYP2C19, CYP2C9, CYP2D6, CYP3A4(BFC) and CYP3A4(BQ) is determined for compounds, where inhibition of metabolism of a known substrate leads to a decrease in the fluorescence of the metabolized product. The fluorescence of the product is monitored as a function of compound concentration.
CYP2D6, sequence (P10635 whole entry): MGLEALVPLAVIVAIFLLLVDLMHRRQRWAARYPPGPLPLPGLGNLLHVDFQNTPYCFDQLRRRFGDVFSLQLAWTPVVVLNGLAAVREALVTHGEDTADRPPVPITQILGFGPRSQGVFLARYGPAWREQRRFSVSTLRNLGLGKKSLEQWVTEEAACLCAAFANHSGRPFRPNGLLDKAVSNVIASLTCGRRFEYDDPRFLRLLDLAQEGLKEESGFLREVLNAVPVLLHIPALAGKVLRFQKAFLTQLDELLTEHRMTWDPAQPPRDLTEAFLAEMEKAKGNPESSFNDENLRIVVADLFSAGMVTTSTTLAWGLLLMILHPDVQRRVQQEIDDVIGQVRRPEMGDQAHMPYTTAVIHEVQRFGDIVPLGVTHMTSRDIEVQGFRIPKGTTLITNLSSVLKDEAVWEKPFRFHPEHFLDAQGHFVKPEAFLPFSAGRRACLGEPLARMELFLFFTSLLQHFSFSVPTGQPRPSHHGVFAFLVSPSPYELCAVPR
(§2) Compounds are dissolved in DMSO to a concentration of 100 mM. These are diluted 1 μL into 82 μL of acetonitrile. An 11 μL aliquot of this solution is then added to 204 μL of cofactor mix (1.3% NADPH Regeneration system Solution A, 1.04% NADPH Regeneration system Solution B from BD Biosciences, 5% acetonitrile and 0.05% DMSO). These are then serially diluted 1:1 (160 μL to 160 μL co-factor mix) for a total of 10 points. A 10 μL aliquot of this final mixture is dispensed into 384 well assay plates and incubated for 10 minutes at 37° C. Enzyme and substrate mix (10 μL; […] CYP1A2/5 μM CEC; 1.0 μmol CYP2C9/75 μM MFC; […] CYP2C19/25 μM CEC; 1.5 μmol CYP2D6/1.5 μM AMMC; 1.0 μmol CYP3A4/50 μM BFC; or 1.0 μmol CYP3A4/40 μM BQ) is added to these assay plates. Assay plates are incubated at 37° C. (CYP1A2-15 min; CYP2C9-45 min; CYP2C19, 2D6 and 3A4-30 min) and read in a Tecan Safire 2 plate reader (CYP1A2, 2C19 and 3A4 409 ex/460 em; CYP2C9 and 2D6409 ex/530 em). The signal versus compound concentration is used to determine the IC50. The enzymes and substrates for this assay are obtained from BD Biosciences.

For another series, the target named is CYP1A2 (Homo sapiens (Human), UniProt P05177). Nature of the series: CYP enzyme inhibition, fluorescent substrate. The conditions noted are these: human, 15 min. The procedure:
as §1, §2

Another series concerns the target CYP2C9 (Homo sapiens (Human), UniProt P11712). Nature of the series: CYP enzyme inhibition, fluorescent substrate. The procedure:
as §1, §2

The next series has as its target CYP3A4(BFC) (Homo sapiens (Human), UniProt P08684). Nature of the series: CYP enzyme inhibition, fluorescent substrate. As for the experimental part: as §1, §2
A further series deals with CYP3A4(BQ) (Homo sapiens (Human), UniProt P08684). As to the kind of experiment: CYP enzyme inhibition, fluorescent substrate. The procedure:
as §1, §2

[1] abbreviates: read-out: Biochemical activity (IC50 μM) Fms.
The mark [2] stands for this setting: read-out: Cyp IC50 (μM) 3A4(BFC), BFC substrate.
Where [3] appears, read: 100 μM ATP, read-out: Biochemical (IC50 μM) Fms.

Like-named read-outs stand apart in the source and are kept apart here.

CYP1A2, sequence (P05177 whole entry): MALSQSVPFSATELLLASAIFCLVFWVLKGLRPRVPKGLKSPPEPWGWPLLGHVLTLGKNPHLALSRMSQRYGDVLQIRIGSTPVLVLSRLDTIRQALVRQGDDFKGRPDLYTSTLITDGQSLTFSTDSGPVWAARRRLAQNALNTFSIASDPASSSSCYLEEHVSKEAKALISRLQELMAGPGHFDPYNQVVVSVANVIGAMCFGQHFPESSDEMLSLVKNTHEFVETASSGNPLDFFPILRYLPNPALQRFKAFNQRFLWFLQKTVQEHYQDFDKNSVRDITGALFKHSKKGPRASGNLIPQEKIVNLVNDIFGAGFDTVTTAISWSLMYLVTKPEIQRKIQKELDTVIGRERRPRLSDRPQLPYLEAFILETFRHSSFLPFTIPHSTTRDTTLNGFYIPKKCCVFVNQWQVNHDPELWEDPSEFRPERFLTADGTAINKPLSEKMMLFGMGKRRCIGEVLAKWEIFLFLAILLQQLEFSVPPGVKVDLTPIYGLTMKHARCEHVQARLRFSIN
CYP3A4(BFC), sequence (P08684 whole entry): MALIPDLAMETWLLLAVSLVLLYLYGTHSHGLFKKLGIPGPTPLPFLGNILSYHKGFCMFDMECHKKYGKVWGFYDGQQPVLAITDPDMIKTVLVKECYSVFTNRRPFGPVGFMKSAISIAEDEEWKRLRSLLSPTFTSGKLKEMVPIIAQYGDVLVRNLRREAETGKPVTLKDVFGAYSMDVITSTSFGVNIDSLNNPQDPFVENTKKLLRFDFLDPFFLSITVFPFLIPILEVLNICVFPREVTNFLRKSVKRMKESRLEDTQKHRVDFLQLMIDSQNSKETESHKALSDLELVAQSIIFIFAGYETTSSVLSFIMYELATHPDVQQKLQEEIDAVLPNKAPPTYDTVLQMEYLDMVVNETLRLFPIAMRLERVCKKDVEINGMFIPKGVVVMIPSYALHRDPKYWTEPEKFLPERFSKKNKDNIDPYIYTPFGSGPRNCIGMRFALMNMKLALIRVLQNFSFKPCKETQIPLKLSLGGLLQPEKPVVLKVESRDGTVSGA
CYP2C9, sequence (P11712 whole entry): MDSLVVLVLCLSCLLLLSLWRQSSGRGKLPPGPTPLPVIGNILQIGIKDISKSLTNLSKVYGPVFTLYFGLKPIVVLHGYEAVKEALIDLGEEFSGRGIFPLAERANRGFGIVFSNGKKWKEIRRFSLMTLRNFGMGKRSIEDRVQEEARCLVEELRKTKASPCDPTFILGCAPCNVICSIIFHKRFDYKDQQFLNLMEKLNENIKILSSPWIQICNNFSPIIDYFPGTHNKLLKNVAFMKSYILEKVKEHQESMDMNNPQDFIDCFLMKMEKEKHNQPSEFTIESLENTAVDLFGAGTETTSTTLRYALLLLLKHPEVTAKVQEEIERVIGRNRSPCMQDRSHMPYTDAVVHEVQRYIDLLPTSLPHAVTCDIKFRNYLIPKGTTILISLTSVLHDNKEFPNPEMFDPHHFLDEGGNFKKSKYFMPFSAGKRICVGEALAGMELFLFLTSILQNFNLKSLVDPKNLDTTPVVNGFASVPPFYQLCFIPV
c-Kit kinase, sequence (P10721 26-976): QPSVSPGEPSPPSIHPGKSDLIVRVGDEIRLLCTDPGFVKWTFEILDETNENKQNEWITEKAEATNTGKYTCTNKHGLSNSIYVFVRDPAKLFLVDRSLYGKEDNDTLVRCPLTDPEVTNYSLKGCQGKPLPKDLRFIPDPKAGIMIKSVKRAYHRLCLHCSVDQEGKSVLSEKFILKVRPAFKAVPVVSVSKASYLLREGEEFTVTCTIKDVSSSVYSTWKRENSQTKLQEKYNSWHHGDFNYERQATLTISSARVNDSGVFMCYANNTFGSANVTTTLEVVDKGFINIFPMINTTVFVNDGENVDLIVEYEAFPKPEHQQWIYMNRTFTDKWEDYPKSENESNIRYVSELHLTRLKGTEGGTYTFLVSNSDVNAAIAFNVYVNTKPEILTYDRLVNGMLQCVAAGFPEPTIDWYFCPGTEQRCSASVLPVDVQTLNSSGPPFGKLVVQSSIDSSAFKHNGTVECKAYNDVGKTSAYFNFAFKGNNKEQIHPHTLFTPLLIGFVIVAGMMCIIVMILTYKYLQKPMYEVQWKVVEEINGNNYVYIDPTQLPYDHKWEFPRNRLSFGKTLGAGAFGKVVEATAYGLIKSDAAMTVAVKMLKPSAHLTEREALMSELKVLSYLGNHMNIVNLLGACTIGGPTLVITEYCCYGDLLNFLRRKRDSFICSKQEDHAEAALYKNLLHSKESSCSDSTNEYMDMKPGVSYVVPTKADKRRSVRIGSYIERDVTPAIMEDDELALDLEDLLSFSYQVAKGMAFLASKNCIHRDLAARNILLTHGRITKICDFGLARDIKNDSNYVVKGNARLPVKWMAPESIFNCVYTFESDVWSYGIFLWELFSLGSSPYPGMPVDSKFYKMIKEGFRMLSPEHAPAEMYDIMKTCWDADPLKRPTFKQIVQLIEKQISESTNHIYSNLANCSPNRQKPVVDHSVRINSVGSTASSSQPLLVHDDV
Fms kinase, sequence (P07333 20-972): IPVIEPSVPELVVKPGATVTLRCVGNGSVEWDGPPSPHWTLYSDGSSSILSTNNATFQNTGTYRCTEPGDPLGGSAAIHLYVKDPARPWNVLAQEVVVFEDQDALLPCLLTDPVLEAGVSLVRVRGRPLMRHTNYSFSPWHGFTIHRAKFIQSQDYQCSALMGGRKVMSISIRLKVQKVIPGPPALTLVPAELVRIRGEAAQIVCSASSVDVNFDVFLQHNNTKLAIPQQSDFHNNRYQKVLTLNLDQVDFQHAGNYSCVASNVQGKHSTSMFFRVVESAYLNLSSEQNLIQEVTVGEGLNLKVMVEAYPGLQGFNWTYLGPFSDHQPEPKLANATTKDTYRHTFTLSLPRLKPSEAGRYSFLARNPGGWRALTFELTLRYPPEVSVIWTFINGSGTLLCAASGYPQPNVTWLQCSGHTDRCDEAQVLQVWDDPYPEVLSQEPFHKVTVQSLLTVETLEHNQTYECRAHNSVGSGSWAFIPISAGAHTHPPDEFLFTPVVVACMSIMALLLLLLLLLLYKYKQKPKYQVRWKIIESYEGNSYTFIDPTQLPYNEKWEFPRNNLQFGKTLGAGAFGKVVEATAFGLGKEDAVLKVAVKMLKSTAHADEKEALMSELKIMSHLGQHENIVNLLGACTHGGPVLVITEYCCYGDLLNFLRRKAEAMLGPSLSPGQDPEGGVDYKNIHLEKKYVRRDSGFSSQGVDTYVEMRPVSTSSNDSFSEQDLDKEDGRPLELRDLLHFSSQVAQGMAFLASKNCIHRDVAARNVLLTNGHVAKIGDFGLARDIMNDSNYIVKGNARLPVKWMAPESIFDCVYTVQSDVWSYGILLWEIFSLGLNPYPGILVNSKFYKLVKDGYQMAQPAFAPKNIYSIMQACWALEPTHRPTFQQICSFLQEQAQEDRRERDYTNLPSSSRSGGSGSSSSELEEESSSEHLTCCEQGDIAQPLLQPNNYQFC
CYP3A4(BQ), sequence (P08684 whole entry): as the sequence (P08684 whole entry) above

In the case of `COc1ccc(CNc2ncc(Cc3c[nH]c4ncc(C)cc34)cc2C)cn1` [Compound P-1554, (6-Methoxy-pyridin-3-ylmethyl)-[3-methyl-5-(5-methyl-1H-pyrrolo[2,3-b]pyridin-3-ylmethyl)-pyridin-2-yl]-amine], the “Biochemical activity selectivity (Kit IC50/Fms IC50)” value on Fms kinase is given as under 20. Further, the IC50 on Fms kinase (setting [1]) and on c-Kit kinase was under 0.1 µM throughout.
In the case of `COc1ccc(CNc2ccc(Cc3c[nH]c4ncc(F)cc34)c(F)n2)cn1` [Compound P-1622, [6-Fluoro-5-(5-fluoro-1H-pyrrolo[2,3-b]pyridin-3-ylmethyl)-pyridin-2-yl]-(6-methoxy-pyridin-3-ylmethyl)-amine], the “Biochemical activity selectivity (Kit IC50/Fms IC50)” value on Fms kinase is over 20. The IC50 is under 0.1 µM on Fms kinase (setting [1]); over 10 µM on CYP2D6; over 10000 nM against CYP1A2; 5000 to 10000 nM at CYP2C9; 5 to 10 µM on CYP3A4(BFC); 5000 to 10000 nM against CYP3A4(BQ). On c-Kit kinase, this molecule gave an IC50 of over 0.1 µM.
With `CS(=O)(=O)Nc1cnc2[nH]cc(Cc3ccc(NCc4ccc(Cl)nc4)nc3F)c2c1` [Compound P-1679, N-(3-{6-[(6-Chloro-pyridin-3-ylmethyl)-amino]-2-fluoro-pyridin-3-ylmethyl}-1H-pyrrolo[2,3-b]pyridin-5-yl)-methanesulfonamide], the “Biochemical activity selectivity (Kit IC50/Fms IC50)” value on Fms kinase is recorded as over 20. Also, the IC50 was under 0.1 µM on Fms kinase (setting [1]); over 10 µM on CYP2D6; over 10000 nM at CYP1A2; under 5000 nM on CYP2C9 (human, CYP2C9 enzyme (BD Biosciences), 45 min); over 10 µM on CYP3A4(BFC) (setting [2]); over 0.1 µM on c-Kit kinase.
As for `Fc1ccc(CNc2ncc(Cc3c[nH]c4ncc(Cl)cc34)cn2)cc1F` [Compound P-2008, [5-(5-Chloro-1H-pyrrolo[2,3-b]pyridin-3-ylmethyl)-pyrimidin-2-yl]-(3,4-difluoro-benzyl)-amine], at Fms kinase, the “Biochemical activity selectivity (Kit IC50/Fms IC50)” value is recorded as under 20. Further, the IC50 on Fms kinase (setting [1]) and against c-Kit kinase was under 0.1 µM in each case.
Consider `Cc1cccc(CNc2ncc(Cc3c[nH]c4ncc(Cl)cc34)cn2)c1` [Compound P-2013, [5-(5-Chloro-1H-pyrrolo[2,3-b]pyridin-3-ylmethyl)-pyrimidin-2-yl]-(3-methyl-benzyl)-amine], for which the “Biochemical activity selectivity (Kit IC50/Fms IC50)” value at Fms kinase is listed as under 20. Besides, the IC50 on Fms kinase (setting [1]) and at c-Kit kinase was under 0.1 µM each time.
With `COc1cnc2[nH]cc(Cc3ccc(NCc4ccccc4Cl)nc3F)c2c1` [Compound P-2034, (2-chloro-benzyl)-[6-fluoro-5-(5-methoxy-1H-pyrrolo[2,3-b]pyridin-3-ylmethyl)-pyridin-2-yl]-amine], the IC50 on Fms kinase (setting [3]) is under 0.1 µM.
For the molecule `COc1cnc2[nH]cc(Cc3ccc(NCc4cccnc4OC)nc3F)c2c1` [Compound P-2043, [6-Fluoro-5-(5-methoxy-1H-pyrrolo[2,3-b]pyridin-3-ylmethyl)-pyridin-2-yl]-(2-methoxy-pyridin-3-ylmethyl)-amine], on Fms kinase, the “Biochemical activity selectivity (Kit IC50/Fms IC50)” value is over 20. In addition, the IC50 against CYP1A2 is over 10000 nM; against CYP2C9, 5000 to 10000 nM; at CYP3A4(BFC) (setting [2]), over 10 µM; at CYP3A4(BQ), 5000 to 10000 nM.
In the case of `Fc1nc(NCc2ccc(Cl)cn2)ccc1Cc1c[nH]c2ncccc12` [Compound P-2044, (5-Chloro-pyridin-2-ylmethyl)-[6-fluoro-5-(1H-pyrrolo[2,3-b]pyridin-3-ylmethyl)-pyridin-2-yl]-amine], the IC50 at Fms kinase (setting [3]) was under 0.1 µM.
As for `Cc1cnc2[nH]cc(Cc3ccc(NCc4cnccc4C(F)(F)F)nc3)c2c1` [Compound P-2070, [5-(5-Methyl-1H-pyrrolo[2,3-b]pyridin-3-ylmethyl)-pyridin-2-yl]-(4-trifluoromethyl-pyridin-3-ylmethyl)-amine], the “Biochemical activity selectivity (Kit IC50/Fms IC50)” value at Fms kinase is under 20. Moreover, the IC50 at Fms kinase (setting [1]) and against c-Kit kinase was under 0.1 µM throughout.
For the molecule `Cc1cnc2[nH]cc(Cc3cnc(NCc4ccc(Cl)nc4)nc3)c2c1` [Compound P-2078, (6-Chloro-pyridin-3-ylmethyl)-[5-(5-methyl-1H-pyrrolo[2,3-b]pyridin-3-ylmethyl)-pyrimidin-2-yl]-amine], at Fms kinase, the “Biochemical activity selectivity (Kit IC50/Fms IC50)” value is over 20. The IC50 on Fms kinase (setting [1]) is under 0.1 µM; at CYP1A2 (CYP1A2 enzyme (BD Biosciences)), over 10000 nM; against CYP2C9 (human, 45 min), under 5000 nM; at c-Kit kinase it was over 0.1 µM.
In the case of `Cc1cnc2[nH]cc(Cc3cnc(NCc4cccnc4OC4CCCC4)nc3)c2c1` [Compound P-2148, (2-Cyclopentyloxy-pyridin-3-ylmethyl)-[5-(5-methyl-1H-pyrrolo[2,3-b]pyridin-3-ylmethyl)-pyrimidin-2-yl]-amine], the “Biochemical activity selectivity (Kit IC50/Fms IC50)” value on Fms kinase is on record as under 20. Besides, the IC50 at Fms kinase (setting [1]) is under 0.1 µM; on c-Kit kinase, over 0.1 µM.
The corresponding values for `COc1ccc(CNc2ncc(Cc3c[nH]c4ncc(Cl)cc34)s2)cn1` [Compound P-2154, [5-(5-Chloro-1H-pyrrolo[2,3-b]pyridin-3-ylmethyl)-thiazol-2-yl]-(6-methoxy-pyridin-3-ylmethyl)-amine] are under 20, under 0.1 µM and under 0.1 µM.
As for `COc1cccc(CNc2ncc(Cc3c[nH]c4ncc(Cl)cc34)s2)n1` [Compound P-2163, [5-(5-Chloro-1H-pyrrolo[2,3-b]pyridin-3-ylmethyl)-thiazol-2-yl]-(6-methoxy-pyridin-2-ylmethyl)-amine], the “Biochemical activity selectivity (Kit IC50/Fms IC50)” value at Fms kinase is listed as under 20. The 50% inhibitory concentration (IC50) on Fms kinase (setting [1]) was under 0.1 µM; against c-Kit kinase, over 0.1 µM.
The corresponding values for `Fc1cncc(CNc2ncc(Cc3c[nH]c4ncc(Cl)cc34)cn2)c1` [Compound P-2176, [5-(5-Chloro-1H-pyrrolo[2,3-b]pyridin-3-ylmethyl)-pyrimidin-2-yl]-(5-fluoro-pyridin-3-ylmethyl)-amine] are over 20, under 0.1 µM and over 0.1 µM.
Regarding `CCS(=O)(=O)Nc1cc(F)cc(CNc2ccc(Cc3c[nH]c4ncc(C)cc34)c(F)n2)c1` [Compound P-2202, Ethanesulfonic acid (3-fluoro-5-{[6-fluoro-5-(5-methyl-1H-pyrrolo[2,3-b]pyridin-3-ylmethyl)-pyridin-2-ylamino]-methyl}-phenyl)-amide], the “Biochemical activity selectivity (Kit IC50/Fms IC50)” value on Fms kinase is under 20. Also, the figures for the IC50 on Fms kinase (setting [1]) and at c-Kit kinase were under 0.1 µM and over 0.1 µM, respectively.

Values taken from patent US9096593B2, “Compounds and methods for kinase modulation, and indications therefor” (Plexxikon Inc., priority 2009, dated 2015).
